Assay results taken from patent US11178871B2, “Herbicidal pyrimidine compounds” (BASF SE, priority 2016, dated 2021).

How the values were obtained:
Assay type in all cases: in vivo
Setaria viridis = assay: greenhouse test, post-emergence treatment, SETVI
Description: (§1) The culture containers used were plastic flowerpots containing loamy sand with approximately 3.0% of humus as the substrate. The seeds of the test plants were sown separately for each species.
(§2) For the post-emergence treatment, the test plants were first grown to a height of 3 to 15 cm, depending on the plant habit, and only then treated with the active ingredients which had been suspended or emulsified in water. For this purpose, the test plants were either sown directly and grown in the same containers, or they were first grown separately as seedlings and transplanted into the test containers a few days prior to treatment.
(§3) Depending on the species, the plants were kept at 10-25° C. or 20-35° C., respectively.
(§4) The test period extended over 2 to 4 weeks. During this time, the plants were tended, and their response to the individual treatments was evaluated.
(§5) Evaluation was carried out using a scale from 0 to 100. 100 means no emergence of the plants, or complete destruction of at least the aerial moieties, and 0 means no damage, or normal course of growth. A good herbicidal activity is given at values of at least 70 and a very good herbicidal activity is given at values of at least 85.
(§6) The plants used in the greenhouse experiments were of the following species: […]

Amaranthus retroflexus = assay: greenhouse test, post-emergence treatment, AMARE
Description: as §1, §2, §3, §4, §5, §6

Alopecurus myosuroides = assay: greenhouse test, post-emergence treatment, ALOMY; details: post-emergence
Description: as §1, §2, §3, §4, §5, §6

Echinocloa crus-galli [1] = assay: greenhouse test, post-emergence treatment, ECHCG; details: post-emergence
Description: as §1, §2, §3, §4, §5, §6

Avena fatua = assay: greenhouse test, post-emergence treatment, AVEFA
Description: as §1, §2, §3, §4, §5, §6

Apera spica-venti = assay: greenhouse test, pre-emergence treatment, APESV
Description: as §1
(§7) For the pre-emergence treatment, the active ingredients, which had been suspended or emulsified in water, were applied directly after sowing by means of finely distributing nozzles. The containers were irrigated gently to promote germination and growth and subsequently covered with transparent plastic hoods until the plants had rooted. This cover caused uniform germination of the test plants, unless this had been impaired by the active ingredients.
as §3, §4, §5, §6

Echinocloa crus-galli [2] = assay: greenhouse test, pre-emergence treatment, ECHCG
Description: as §1, §7, §3, §4, §5, §6

O=P(O)(O)C(Cc1nc(C2CC2)ncc1-c1ccccc1Cl)P(=O)(O)O [Ex. 90]
herbicidal activity (Setaria viridis; 2000 g/ha): very good (a very good herbicidal activity is given at values of at least 85)

COc1ccc(-c2nc(C3CC3)ncc2-c2ccccc2Cl)cc1 [Ex. 164]
herbicidal activity (Amaranthus retroflexus; 2000 g/ha): very good (a very good herbicidal activity is given at values of at least 85)

O=[N+]([O-])c1ccccc1-c1cnc(C2CC2)nc1-c1cccs1 [Ex. 38]
herbicidal activity (Setaria viridis; 1000 g/ha): good (A good herbicidal activity is given at values of at least 70)

Cc1nc(C(C)Br)ncc1-c1ccccc1Cl (centres unmarked) [Ex. 52]
herbicidal activity (Setaria viridis; 1000 g/ha): very good (a very good herbicidal activity is given at values of at least 85)

OCCc1nc(C2CC2)ncc1-c1ccccc1Cl [Ex. 255]
herbicidal activity (Amaranthus retroflexus; 500 g/ha): good (A good herbicidal activity is given at values of at least 70)

Cc1cc(-c2nc(C3CC3)ncc2-c2ccccc2Cl)sn1 [Ex. 254]
herbicidal activity (Alopecurus myosuroides; 1000 g/ha): good (A good herbicidal activity is given at values of at least 70) | herbicidal activity (Amaranthus retroflexus; 1000 g/ha): very good (a very good herbicidal activity is given at values of at least 85) | herbicidal activity (Echinocloa crus-galli [1]; 1000 g/ha): very good (a very good herbicidal activity is given at values of at least 85)

O=C(O)/C=C/c1nc(C2CC2)ncc1-c1ccccc1Cl [Ex. 131]
herbicidal activity (Amaranthus retroflexus; 2000 g/ha): very good (a very good herbicidal activity is given at values of at least 85) | herbicidal activity (Echinocloa crus-galli [1]; 2000 g/ha): very good (a very good herbicidal activity is given at values of at least 85)

OCc1nc(C2CC2)ncc1-c1ccc(F)cc1Cl [Ex. 15]
herbicidal activity (Alopecurus myosuroides; 1000 g/ha): very good (a very good herbicidal activity is given at values of at least 85) | herbicidal activity (Amaranthus retroflexus; 1000 g/ha): good (A good herbicidal activity is given at values of at least 70) | herbicidal activity (Avena fatua; 1000 g/ha): very good (a very good herbicidal activity is given at values of at least 85) | herbicidal activity (Apera spica-venti; 1000 g/ha): very good (a very good herbicidal activity is given at values of at least 85) | herbicidal activity (Echinocloa crus-galli [2]; 1000 g/ha): very good (a very good herbicidal activity is given at values of at least 85)

COC(=O)C(O)Cc1nc(C2CC2)ncc1-c1ccccc1Cl (centres unmarked) [Ex. 129]
herbicidal activity (Alopecurus myosuroides; 2000 g/ha): very good (a very good herbicidal activity is given at values of at least 85) | herbicidal activity (Amaranthus retroflexus; 2000 g/ha): very good (a very good herbicidal activity is given at values of at least 85) | herbicidal activity (Echinocloa crus-galli [1]; 2000 g/ha): very good (a very good herbicidal activity is given at values of at least 85) | herbicidal activity (Apera spica-venti; 2000 g/ha): very good (a very good herbicidal activity is given at values of at least 85)

CCc1ncc(-c2ccccc2Br)c(-c2ccco2)n1 [Ex. 62]
herbicidal activity (Setaria viridis; 500 g/ha): very good (a very good herbicidal activity is given at values of at least 85)

Clc1ccccc1-c1cnc(C2CC2)nc1CC1CCC1 [Ex. 98]
herbicidal activity (Setaria viridis; 500 g/ha): good (A good herbicidal activity is given at values of at least 70)

COC(=O)COC(C)c1nc(C2CC2)ncc1-c1ccccc1Cl (centres unmarked) [Ex. 141]
herbicidal activity (Setaria viridis; 1000 g/ha): good (A good herbicidal activity is given at values of at least 70)

Clc1ccccc1-c1cnc(C2CC2)nc1/C=C/c1c(Cl)ccc(Cl)c1Cl [Ex. 232]
herbicidal activity (Amaranthus retroflexus; 2000 g/ha): very good (a very good herbicidal activity is given at values of at least 85)

COC(=O)CCc1nc(C2CC2)ncc1-c1ccccc1Cl [Ex. 132]
herbicidal activity (Amaranthus retroflexus; 2000 g/ha): good (A good herbicidal activity is given at values of at least 70) | herbicidal activity (Echinocloa crus-galli [1]; 2000 g/ha): very good (a very good herbicidal activity is given at values of at least 85)

CC(Br)c1ncc(-c2ccccc2Cl)c(CBr)n1 (centres unmarked) [Ex. 51]
herbicidal activity (Setaria viridis; 1000 g/ha): very good (a very good herbicidal activity is given at values of at least 85)

OC1(c2nc(C3CC3)ncc2-c2ccccc2Cl)CCCC1 [Ex. 127]
herbicidal activity (Amaranthus retroflexus; 2000 g/ha): very good (a very good herbicidal activity is given at values of at least 85)

COC(=O)Cc1nc(C2CC2)ncc1-c1cc(F)ccc1Cl [Ex. 150]
herbicidal activity (Alopecurus myosuroides; 2000 g/ha): good (A good herbicidal activity is given at values of at least 70) | herbicidal activity (Amaranthus retroflexus; 2000 g/ha): very good (a very good herbicidal activity is given at values of at least 85) | herbicidal activity (Echinocloa crus-galli [1]; 2000 g/ha): very good (a very good herbicidal activity is given at values of at least 85) | herbicidal activity (Apera spica-venti; 2000 g/ha): very good (a very good herbicidal activity is given at values of at least 85) | herbicidal activity (Echinocloa crus-galli [2]; 2000 g/ha): good (A good herbicidal activity is given at values of at least 70)

Clc1ccccc1-c1cnc(C2CC2)nc1CC1CCCC1 [Ex. 99]
herbicidal activity (Setaria viridis; 2000 g/ha): very good (a very good herbicidal activity is given at values of at least 85)

COc1cnc(O)nc1-c1nc(C2CC2)ncc1-c1ccccc1Cl [Ex. 250]
herbicidal activity (Alopecurus myosuroides; 2000 g/ha): very good (a very good herbicidal activity is given at values of at least 85) | herbicidal activity (Avena fatua; 2000 g/ha): very good (a very good herbicidal activity is given at values of at least 85) | herbicidal activity (Echinocloa crus-galli [1]; 2000 g/ha): very good (a very good herbicidal activity is given at values of at least 85) | herbicidal activity (Apera spica-venti; 2000 g/ha): very good (a very good herbicidal activity is given at values of at least 85) | herbicidal activity (Echinocloa crus-galli [2]; 2000 g/ha): very good (a very good herbicidal activity is given at values of at least 85)

Brc1ccccc1-c1cnc(C2CC2)nc1-c1csc2ccccc12 [Ex. 47]
herbicidal activity (Amaranthus retroflexus; 1000 g/ha): very good (a very good herbicidal activity is given at values of at least 85)

Clc1ccccc1-c1cnc(C2CC2)nc1-c1cncs1 [Ex. 245]
herbicidal activity (Alopecurus myosuroides; 1000 g/ha): very good (a very good herbicidal activity is given at values of at least 85) | herbicidal activity (Avena fatua; 1000 g/ha): very good (a very good herbicidal activity is given at values of at least 85) | herbicidal activity (Echinocloa crus-galli [1]; 1000 g/ha): very good (a very good herbicidal activity is given at values of at least 85) | herbicidal activity (Apera spica-venti; 1000 g/ha): very good (a very good herbicidal activity is given at values of at least 85) | herbicidal activity (Echinocloa crus-galli [2]; 1000 g/ha): good (A good herbicidal activity is given at values of at least 70)

Cc1cc(-c2nc(C3CC3)ncc2-c2ccccc2Br)c(C)o1 [Ex. 237]
herbicidal activity (Alopecurus myosuroides; 2000 g/ha): very good (a very good herbicidal activity is given at values of at least 85) | herbicidal activity (Avena fatua; 2000 g/ha): very good (a very good herbicidal activity is given at values of at least 85) | herbicidal activity (Echinocloa crus-galli [1]; 2000 g/ha): very good (a very good herbicidal activity is given at values of at least 85) | herbicidal activity (Apera spica-venti; 2000 g/ha): very good (a very good herbicidal activity is given at values of at least 85) | herbicidal activity (Echinocloa crus-galli [2]; 2000 g/ha): very good (a very good herbicidal activity is given at values of at least 85)

Cc1ncoc1-c1nc(C2CC2)ncc1-c1cc(F)ccc1Cl [Ex. 236]
herbicidal activity (Alopecurus myosuroides; 2000 g/ha): very good (a very good herbicidal activity is given at values of at least 85) | herbicidal activity (Avena fatua; 2000 g/ha): very good (a very good herbicidal activity is given at values of at least 85) | herbicidal activity (Echinocloa crus-galli [1]; 2000 g/ha): very good (a very good herbicidal activity is given at values of at least 85) | herbicidal activity (Apera spica-venti; 2000 g/ha): very good (a very good herbicidal activity is given at values of at least 85) | herbicidal activity (Echinocloa crus-galli [2]; 2000 g/ha): very good (a very good herbicidal activity is given at values of at least 85)

OC1(Cc2nc(C3CC3)ncc2-c2ccccc2Cl)CCC1 [Ex. 65]
herbicidal activity (Amaranthus retroflexus; 2000 g/ha): very good (a very good herbicidal activity is given at values of at least 85) | herbicidal activity (Echinocloa crus-galli [1]; 2000 g/ha): very good (a very good herbicidal activity is given at values of at least 85)

Cc1ncoc1-c1nc(C2CC2)ncc1-c1cc(C(F)(F)F)ccc1Br [Ex. 263]
herbicidal activity (Alopecurus myosuroides; 1000 g/ha): very good (a very good herbicidal activity is given at values of at least 85) | herbicidal activity (Avena fatua; 1000 g/ha): very good (a very good herbicidal activity is given at values of at least 85) | herbicidal activity (Echinocloa crus-galli [1]; 1000 g/ha): very good (a very good herbicidal activity is given at values of at least 85) | herbicidal activity (Apera spica-venti; 1000 g/ha): very good (a very good herbicidal activity is given at values of at least 85) | herbicidal activity (Echinocloa crus-galli [2]; 1000 g/ha): very good (a very good herbicidal activity is given at values of at least 85)

COC(=O)Cc1nc(C2CC2)ncc1-c1ccccc1Cl [Ex. 32]
herbicidal activity (Alopecurus myosuroides; 2000 g/ha): very good (a very good herbicidal activity is given at values of at least 85) | herbicidal activity (Avena fatua; 2000 g/ha): very good (a very good herbicidal activity is given at values of at least 85) | herbicidal activity (Echinocloa crus-galli [1]; 2000 g/ha): very good (a very good herbicidal activity is given at values of at least 85) | herbicidal activity (Apera spica-venti; 2000 g/ha): very good (a very good herbicidal activity is given at values of at least 85) | herbicidal activity (Echinocloa crus-galli [2]; 2000 g/ha): very good (a very good herbicidal activity is given at values of at least 85)

CCOC(=O)Cc1nc(OC)ncc1-c1ccccc1Cl [Ex. 226]
herbicidal activity (Amaranthus retroflexus; 500 g/ha): very good (a very good herbicidal activity is given at values of at least 85)

C/C=C/c1nc(C2CC2)ncc1-c1ccccc1Cl [Ex. 93]
herbicidal activity (Alopecurus myosuroides; 2000 g/ha): very good (a very good herbicidal activity is given at values of at least 85) | herbicidal activity (Avena fatua; 2000 g/ha): very good (a very good herbicidal activity is given at values of at least 85) | herbicidal activity (Echinocloa crus-galli [1]; 2000 g/ha): very good (a very good herbicidal activity is given at values of at least 85) | herbicidal activity (Apera spica-venti; 2000 g/ha): very good (a very good herbicidal activity is given at values of at least 85) | herbicidal activity (Echinocloa crus-galli [2]; 2000 g/ha): very good (a very good herbicidal activity is given at values of at least 85)

Cc1occc1-c1nc(C2CC2)ncc1-c1ccccc1Br [Ex. 238]
herbicidal activity (Amaranthus retroflexus; 2000 g/ha): very good (a very good herbicidal activity is given at values of at least 85) | herbicidal activity (Echinocloa crus-galli [1]; 2000 g/ha): very good (a very good herbicidal activity is given at values of at least 85)
